From patent US20110251194A1, “ANTINEOPLASTIC DERIVATIVES, PREPARATION THEREOF AND THERAPEUTIC USE THEREOF” (SANOFI-AVENTIS, priority 2008, published 2011)

Legend:
[1] = tested on: HCT116 tumour line (ref. ATCC-CCL247); assay: MTS proliferation and cell viability test on the HCT116 tumour line; assay type: cell-based; conditions: Homo sapiens, HCT-116, incubation of the tested compound for 72 h, 50% loss of proliferation and of cell viability
Experimental: The proliferation and the cell viability were determined in a test using 3-(4,5-dimethylthiazol-2-yl)-5-(3-carboxymethoxyphenyl)-2-(4-sulfophenyl)-2H-tetrazolium (MTS) according to Fujishita T. et al. Oncology 2003, 64(4), 399-406 (see page 401). In this test, the mitochondrial capacity of the living cells for converting the MTS into a coloured compound, after incubation of the tested compound for 72 h, is measured. IC50 (nM) denotes the concentration of compound which results in a 50% loss of proliferation and of cell viability.
The compounds of Table I were the subject of in vitro experimental tests on the HCT116 tumour line (ref. ATCC-CCL247).

| SMILES | IC50 [1] | melting point |
| --- | --- | --- |
| CCn1c(N)c(C(=O)NC)c(=O)c2ccc(-c3ccc(NC(=O)NCc4cccnc4)cc3)nc21 [No. 1, 2-Amino-1-ethyl-4-oxo-7-[4-(3-pyridin-3-ylmethylureido)phenyl]-1,4-dihydro[1,8]naphthyridine-3-carboxylic acid methylamide] | 0.2 to 0.5 nM |  |
| CCn1c(N)c(C(=O)NC)c(=O)c2ccc(-c3ccc(NC(=O)/C=C/c4cccnc4)cc3)nc21 [No. 7, 2-Amino-1-ethyl-4-oxo-7-[4-((E)-3-pyridin-3-yl-acryloylamino)phenyl]-1,4-dihydro[1,8]naphthyridine-3-carboxylic acid methylamide] | 2 nM |  |
| CCOC(=O)c1c(N)n(CC)c2nc(-c3ccc(NC(=O)NCc4cccnc4)cc3)ccc2c1=O [No. 10, 2-Amino-1-ethyl-4-oxo-7-[4-(3-pyridin-3-ylmethylureido)phenyl]-1,4-dihydro[1,8]naphthyridine-3-carboxylic acid ethyl ester] | < 1 nM |  |
| CCn1c(N)c(C(=O)O)c(=O)c2ccc(-c3ccc(NC(=O)NCc4cccnc4)cc3)nc21 [No. 13, 2-Amino-1-ethyl-4-oxo-7-[4-(3-pyridin-3-ylmethylureido)phenyl]-1,4-dihydro[1,8]naphthyridine-3-carboxylic acid] | 6 nM |  |
| CCn1c(N)c(C(=O)NC)c(=O)c2ccc(-c3ccc(NC(=O)NCc4cccnc4)cc3)cc21 [No. 27, 2-Amino-1-ethyl-4-oxo-7-[4-(3-pyridin-3-ylmethylureido)phenyl]-1,4-dihydroquinoline-3-carboxylic acid methylamide] | 0.1 nM |  |
| CCn1c(N)c(C(=O)NCCN2CCOCC2)c(=O)c2ccc(-c3ccc(NC(=O)NCc4cccnc4)cc3)nc21 [No. 30, 2-Amino-1-ethyl-4-oxo-7-[4-(3-pyridin-3-ylmethylureido)phenyl]-1,4-dihydro[1,8]naphthyridine-3-carboxylic acid (2-morpholin-4-ylethyl)amide] | 0.1 nM | 245 °C |
| CCn1c(NCCN2CCN(C)CC2)c(C(=O)NCCN2CCN(C)CC2)c(=O)c2ccc(-c3ccc(NC(=O)NCc4cccnc4)cc3)nc21 [No. 46, 1-Ethyl-2-[2-(4-methyl-piperazin-1-yl)-ethylamino]-4-oxo-7-[4-(3-pyridin-3-ylmethylureido)phenyl]-1,4-dihydro[1,8]naphthyridine-3-carboxylic acid [2-(4-methylpiperazin-1-yl)ethyl]amide] | 1.9 nM |  |
| CCn1c(N)c(C(=O)NC)c(=O)c2cnc(-c3ccc(NC(=O)NCc4cccnc4)cc3)nc21 [No. 53, 7-Amino-8-ethyl-5-oxo-2-[4-(3-pyridin-3-ylmethylureido)phenyl]-5,8-dihydro-pyrido[2,3-d]pyrimidine-6-carboxylic acid methylamide] | 6 nM |  |
| CCn1c(N)c(C(N)=O)c(=O)c2ccc(-c3ccc(NC(=O)NCc4cccnc4)cc3)cc21 [No. 56, 2-Amino-1-ethyl-4-oxo-7-[4-(3-pyridin-3-ylmethylureido)phenyl]-1,4-dihydroquinoline-3-carboxylic acid amide] | 0.19 nM |  |
| CCn1c(NCCN2CCCC2C)c(C(=O)NCCN2CCCC2C)c(=O)c2ccc(-c3ccc(NC(=O)NCc4cccnc4)cc3)nc21 (centres unmarked) [No. 57, 1-Ethyl-2-[2-(2-methyl-pyrrolidin-1-yl)-ethylamino]-4-oxo-7-[4-(3-pyridin-3-ylmethylureido)phenyl]-1,4-dihydro[1,8]naphthyridine-3-carboxylic acid [2-(2-methylpyrrolidin-1-yl)ethyl]amide] | 0.26 nM |  |
| CCn1c(NCC2CCCO2)c(C(=O)NCC2CCCO2)c(=O)c2ccc(-c3ccc(NC(=O)NCc4cccnc4)cc3)cc21 (centres unmarked) [No. 59, 1-Ethyl-4-oxo-7-[4-(3-pyridin-3-ylmethylureido)phenyl]-2-[(tetrahydrofuran-2-ylmethyl)amino]-1,4-dihydroquinoline-3-carboxylic acid (tetrahydrofuran-2-ylmethyl)amide] | 0.47 nM |  |
| CCn1c(NCCN(C(C)C)C(C)C)c(C(=O)NCCN(C(C)C)C(C)C)c(=O)c2ccc(-c3ccc(NC(=O)NCc4cccnc4)cc3)cc21 [No. 60, 2-(2-Diisopropylaminoethylamino)-1-ethyl-4-oxo-7-[4-(3-pyridin-3-ylmethylureido)phenyl]-1,4-dihydroquinoline-3-carboxylic acid (2-diisopropylaminoethyl)amide] | 0.1 nM |  |
| CCn1c(NCCN2CCCC2)c(C(=O)NCCN2CCCC2)c(=O)c2ccc(-c3ccc(NC(=O)NCc4cccnc4)cc3)cc21 [No. 61, 1-Ethyl-4-oxo-7-[4-(3-pyridin-3-ylmethylureido)phenyl]-2-(2-pyrrolidin-1-ylethylamino)-1,4-dihydroquinoline-3-carboxylic acid (2-pyrrolidin-1-ylethyl)amide] | 0.1 nM |  |
